Measured values published in PubChem BioAssay (NCI).
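Each compound was tested at five concentrations against cells in 96-well plates for 48 hours. TGI is the concentration that stops growth completely.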

Experiments:
Test in all cases: DTP human tumour cell line panel, 48 h
[1] = system: HCT-116 colon
[2] = system: A549 NSCLC
[3] = system: HCC-2998 colon
[4] = system: OVCAR-4 ovarian
[5] = system: A498 renal
[6] = system: SNB-75 CNS
[7] = system: NCI-H460 lung
[8] = system: T-47D breast
[9] = system: MOLT-4 leukemia
[10] = system: SN12C renal
[11] = system: SK-MEL-28 melanoma
[12] = system: UO-31 renal
[13] = system: DU-145 prostate
[14] = system: MDA-MB-231 breast
[15] = system: BT-549 breast
[16] = system: SK-MEL-2 melanoma
[17] = system: HOP-92 NSCLC
[18] = system: UACC-62 melanoma
[19] = system: COLO 205 colon
[20] = system: LOX IMVI melanoma
[21] = system: OVCAR-3 ovarian
[22] = system: NCI-H226 lung
[23] = system: KM12 colon
[24] = system: MDA-MB-435
[25] = system: RXF 393 renal
[26] = system: EKVX NSCLC
[27] = system: RPMI-8226 leukemia
[28] = system: HT29 colon
[29] = system: SF-268 CNS
[30] = system: UACC-257 melanoma
[31] = system: SK-MEL-5 melanoma
[32] = system: CAKI-1 renal
[33] = system: SNB-19 CNS
[34] = system: PC-3 prostate
[35] = system: K-562 leukemia
[36] = system: HOP-62 NSCLC
[37] = system: OVCAR-8 ovarian
[38] = system: MDA-N
[39] = system: MALME-3M melanoma
[40] = system: TK-10 renal
[41] = system: ACHN renal
[42] = system: 786-0 renal
[43] = system: NCI-H522 lung
[44] = system: M14 melanoma
[45] = system: SF-295 CNS
[46] = system: NCI-H23 lung
[47] = system: OVCAR-5 ovarian
[48] = system: HCT-15 colon
[49] = system: MCF7 breast
[50] = system: U251 CNS
[51] = system: HS 578T breast
[52] = system: NCI/ADR-RES ovarian
[53] = system: SK-OV-3 ovarian
[54] = system: SF-539 CNS
[55] = system: IGROV1 ovarian
[56] = system: HL-60(TB) leukemia
[57] = system: SR leukemia
[58] = system: SW-620 colon
[59] = system: CCRF-CEM leukemia

**Q.** With `CC(=N/NC(=S)N1CCCCC1)/C(=N\NC(=S)N1CCCCC1)c1ccccc1` as the compound, how does the TGI [1] read?
**A.** 5.83 µM

**Q.** And the TGI [2]?
**A.** 4.5 µM

**Q.** And the TGI [3]?
**A.** 4.48 µM

**Q.** And the TGI [4]?
**A.** 3.61 µM

**Q.** What about the TGI [5] of the same compound?
**A.** 2.65 µM

**Q.** What about the TGI [6] of the same compound?
**A.** 3.59 µM

**Q.** What about the TGI [7] of the same compound?
**A.** 4.48 µM

**Q.** What about the TGI [8] of the same compound?
**A.** 3.99 µM

**Q.** What about the TGI [9] of the same compound?
**A.** > 100 µM

**Q.** What about the TGI [10] of the same compound?
**A.** 3.43 µM

**Q.** What about the TGI [11] of the same compound?
**A.** 3.94 µM

**Q.** What about the TGI [12] of the same compound?
**A.** 4.03 µM

**Q.** And the TGI [13]?
**A.** 0.973 µM

**Q.** And the TGI [14]?
**A.** > 19.8 µM

**Q.** What about the TGI [15] of the same compound?
**A.** 3.56 µM

**Q.** And the TGI [16]?
**A.** 4.62 µM

**Q.** What about the TGI [17] of the same compound?
**A.** 3.36 µM

**Q.** And the TGI [18]?
**A.** 3.87 µM

**Q.** And the TGI [19]?
**A.** 4.06 µM

**Q.** What about the TGI [20] of the same compound?
**A.** 25.9 µM

**Q.** And the TGI [21]?
**A.** 3.34 µM

**Q.** And the TGI [22]?
**A.** 3.47 µM

**Q.** And the TGI [23]?
**A.** 3.99 µM

**Q.** What about the TGI [24] of the same compound?
**A.** 4.07 µM

**Q.** And the TGI [25]?
**A.** 2.82 µM

**Q.** What about the TGI [26] of the same compound?
**A.** 3.43 µM

**Q.** What about the TGI [27] of the same compound?
**A.** > 100 µM

**Q.** What about the TGI [28] of the same compound?
**A.** 4.71 µM

**Q.** And the TGI [29]?
**A.** 3.37 µM

**Q.** And the TGI [30]?
**A.** 4.52 µM

**Q.** What about the TGI [31] of the same compound?
**A.** 3.57 µM

**Q.** And the TGI [32]?
**A.** 4.22 µM

**Q.** What about the TGI [33] of the same compound?
**A.** 3.64 µM

**Q.** What about the TGI [34] of the same compound?
**A.** 3.55 µM

**Q.** What about the TGI [35] of the same compound?
**A.** > 100 µM

**Q.** What about the TGI [36] of the same compound?
**A.** 4.43 µM

**Q.** And the TGI [37]?
**A.** 6.24 µM

**Q.** And the TGI [38]?
**A.** 7.64 µM

**Q.** And the TGI [39]?
**A.** 3.96 µM

**Q.** And the TGI [40]?
**A.** 3.21 µM

**Q.** And the TGI [41]?
**A.** 3.01 µM

**Q.** And the TGI [42]?
**A.** 3.69 µM

**Q.** And the TGI [43]?
**A.** 4.18 µM

**Q.** What about the TGI [44] of the same compound?
**A.** 3.64 µM

**Q.** What about the TGI [45] of the same compound?
**A.** 3.82 µM

**Q.** What about the TGI [46] of the same compound?
**A.** 5.16 µM

**Q.** What about the TGI [47] of the same compound?
**A.** 3.87 µM

**Q.** What about the TGI [48] of the same compound?
**A.** 4.56 µM

**Q.** And the TGI [49]?
**A.** > 22.7 µM

**Q.** And the TGI [50]?
**A.** 3.53 µM

**Q.** What about the TGI [51] of the same compound?
**A.** 4.82 µM

**Q.** And the TGI [52]?
**A.** 6.43 µM

**Q.** What about the TGI [53] of the same compound?
**A.** 3.49 µM

**Q.** What about the TGI [54] of the same compound?
**A.** 10.6 µM

**Q.** And the TGI [55]?
**A.** 3.27 µM

**Q.** How did the TGI [56] turn out when `Nc1nc(N)c(N=O)c(Nc2ccc(O)cc2)n1` was run?
**A.** > 71.3 µM

**Q.** What about the TGI [1] of the same compound?
**A.** > 100 µM

**Q.** What about the TGI [2] of the same compound?
**A.** > 100 µM

**Q.** What about the TGI [3] of the same compound?
**A.** > 100 µM

**Q.** And the TGI [4]?
**A.** > 100 µM

**Q.** And the TGI [5]?
**A.** > 85.1 µM

**Q.** What about the TGI [6] of the same compound?
**A.** > 67.7 µM

**Q.** And the TGI [7]?
**A.** > 100 µM

**Q.** What about the TGI [8] of the same compound?
**A.** > 96.1 µM

**Q.** And the TGI [9]?
**A.** > 60.9 µM

**Q.** What about the TGI [10] of the same compound?
**A.** > 100 µM

**Q.** What about the TGI [11] of the same compound?
**A.** > 100 µM

**Q.** And the TGI [12]?
**A.** > 86.7 µM

**Q.** What about the TGI [13] of the same compound?
**A.** > 100 µM

**Q.** And the TGI [14]?
**A.** > 100 µM

**Q.** And the TGI [15]?
**A.** > 82.9 µM

**Q.** What about the TGI [16] of the same compound?
**A.** > 100 µM

**Q.** And the TGI [17]?
**A.** > 100 µM

**Q.** What about the TGI [18] of the same compound?
**A.** > 100 µM

**Q.** And the TGI [57]?
**A.** 97.7 µM

**Q.** What about the TGI [19] of the same compound?
**A.** > 100 µM

**Q.** What about the TGI [20] of the same compound?
**A.** > 100 µM

**Q.** And the TGI [21]?
**A.** > 100 µM

**Q.** And the TGI [22]?
**A.** 96 µM

**Q.** And the TGI [23]?
**A.** > 100 µM

**Q.** And the TGI [24]?
**A.** > 100 µM

**Q.** And the TGI [25]?
**A.** > 100 µM

**Q.** What about the TGI [26] of the same compound?
**A.** > 100 µM

**Q.** What about the TGI [27] of the same compound?
**A.** > 68.2 µM

**Q.** What about the TGI [28] of the same compound?
**A.** > 100 µM

**Q.** And the TGI [29]?
**A.** > 83.8 µM

**Q.** And the TGI [30]?
**A.** > 100 µM

**Q.** And the TGI [31]?
**A.** > 100 µM

**Q.** And the TGI [32]?
**A.** > 76.3 µM

**Q.** What about the TGI [33] of the same compound?
**A.** > 100 µM

**Q.** And the TGI [34]?
**A.** > 100 µM

**Q.** And the TGI [35]?
**A.** > 92.1 µM

**Q.** What about the TGI [36] of the same compound?
**A.** > 57.2 µM

**Q.** What about the TGI [37] of the same compound?
**A.** > 100 µM

**Q.** What about the TGI [38] of the same compound?
**A.** > 100 µM

**Q.** And the TGI [39]?
**A.** > 100 µM

**Q.** And the TGI [40]?
**A.** > 100 µM

**Q.** What about the TGI [58] of the same compound?
**A.** > 100 µM

**Q.** And the TGI [41]?
**A.** > 86.1 µM

**Q.** What about the TGI [42] of the same compound?
**A.** > 95.5 µM

**Q.** And the TGI [43]?
**A.** > 56.6 µM

**Q.** And the TGI [59]?
**A.** > 100 µM

**Q.** What about the TGI [45] of the same compound?
**A.** > 65.1 µM

**Q.** What about the TGI [46] of the same compound?
**A.** > 100 µM

**Q.** And the TGI [47]?
**A.** > 26.1 µM

**Q.** What about the TGI [48] of the same compound?
**A.** > 100 µM

**Q.** And the TGI [50]?
**A.** > 100 µM

**Q.** And the TGI [51]?
**A.** 58.8 µM

**Q.** What about the TGI [52] of the same compound?
**A.** > 50.4 µM

**Q.** What about the TGI [53] of the same compound?
**A.** 45.1 µM

**Q.** What about the TGI [54] of the same compound?
**A.** 16.3 µM

**Q.** And the TGI [55]?
**A.** 44.8 µM

**Q.** What does the source list for `COc1ccc(CN2C[C@H]3[C@@H](CC(=O)O[C@H]3C)CC2=O)cc1`?
**A.** TGI [1]: > 100 µM; TGI [2]: > 100 µM; TGI [3]: > 100 µM; TGI [4]: > 100 µM; TGI [5]: > 100 µM; TGI [6]: > 100 µM; TGI [7]: > 100 µM; TGI [9]: > 100 µM; TGI [11]: > 100 µM; TGI [12]: > 100 µM; TGI [13]: > 100 µM; TGI [14]: > 100 µM; TGI [15]: > 100 µM; TGI [16]: > 100 µM; TGI [17]: > 100 µM; TGI [18]: > 100 µM; TGI [57]: > 100 µM; TGI [19]: > 100 µM; TGI [21]: > 100 µM; TGI [23]: > 100 µM; TGI [24]: > 100 µM; TGI [25]: > 100 µM; TGI [26]: > 100 µM; TGI [27]: > 100 µM; TGI [28]: > 100 µM; TGI [29]: > 100 µM; TGI [30]: > 100 µM; TGI [31]: > 100 µM; TGI [32]: > 100 µM; TGI [33]: > 100 µM; TGI [34]: > 100 µM; TGI [35]: > 100 µM; TGI [36]: > 100 µM; TGI [37]: > 100 µM; TGI [38]: > 100 µM; TGI [39]: > 100 µM; TGI [58]: > 100 µM; TGI [41]: > 100 µM; TGI [42]: > 100 µM; TGI [43]: > 100 µM; TGI [59]: > 100 µM; TGI [44]: > 100 µM; TGI [45]: > 100 µM; TGI [46]: > 100 µM; TGI [47]: > 100 µM; TGI [48]: > 100 µM; TGI [49]: > 100 µM; TGI [50]: > 100 µM; TGI [51]: > 100 µM; TGI [52]: > 100 µM; TGI [53]: > 100 µM; TGI [55]: > 100 µM
